Measured values reported in patent US12521384B2, “Drug delivery composition using crosslinked hyaluronic acid and manufacturing method therefor” (JP cares, priority 2020, dated 2026).

How the values were obtained:
[1] = Drug release behavior of bupivacaine (dialysis bag in PBS, RP-HPLC); type: physicochemical; details: 8 hours; PBS 37° C., 100 rpm
Method: By mixing the crosslinked hyaluronic acid gels, JPD001, JPD004 and (mixture of JPD001 and JPD004 at a weight ratio of 1:1) comprising the crosslinked hyaluronic acid solid prepared in Example 1 at a content of 2% by weight, which are Samples 1-1, 1-4 and 1-5 of Example 1 of 6 g, respectively, and 0.75% by weight bupivacaine solution 3 g, a drug preparation was prepared. A preparation in which non-crosslinked hyaluronic acid having a molecular weight of 1,500 kDa (repeated unit molecular weight 401.3) 2% by weight and a preparation comprising only the bupivacaine drug were prepared, respectively, as a control group.
The prepared drug preparation was put in a dialysis bag (MWCO: 12 K-14 K Da), separately. Then, the dialysis bag was immersed into a tube with 15 ml phosphate buffer solution. The 50 mL conical tube in which the immersed dialysis bag was put was placed in a shaking tank maintained at 37° C. and shaken at 100 rpm horizontally. Then, at scheduled time intervals, a release medium (PBS) aliquot of 1.5 mL was collected and the entire release medium was replaced with new PBS to maintain a sink condition. Quantification of the released bupivacaine was determined by reverse-phase high-performance liquid chromatography (RP-HPLC) using a ZORBAX Eclipse XDB C18 column (4.6 mm×250 mm, 5 μm) and acetonitrile/pH 8.0 buffer (60:40, v/v) for 10 minutes or more.

Sprague-Dawley rats = assay: Mechanical allodynia degree (threshold), von Frey up-down method, after plantar incision; type: in vivo; details: Gb: Ro 0.75% 300 + SC 300 (ropivacaine 2.25 mg); for threshold value (g), group average: once near sciatic nerve
Method: Specific pathogen-free (SPF) Sprague-Dawley rats [Cr1:CD (Sprague Dawley)] (Producer: Orient Bio Inc. (322, Galmachi-ro, Jungwon-gu, Seongnam-si, Gyeonggi-do)) were prepared according to the following condition. • (1) Number of animals at acquisition: male 28 rats • (2) Age at acquisition: about 7-week-old • (3) Body weight range at acquisition: 199.29 to 222.35 g • (4) Age at start of administration: about 8-week-old • (5) Body weight range at start of administration: 265.63 to 294.00 g • (6) Number of animals used: 24 rats • (7) Group separation
After disinfecting the left plantar part of the prepared test animals under general anesthesia, the skin and fascia with a length of 1 cm were incised in the longitudinal direction starting from the part 0.5 cm away from the tip of the back of the foot. The sole muscle (plantar muscle) of the incised part was lifted with forceps to separate 1 cm in length. […] All Ga to Gd doses […] were equally administered near the nerve tissue, and the number of animals comprised in the experimental group were 6.
As a method for measuring the degree of mechanical allodynia after preparing the test groups, a white rat was placed in a wire mesh cage with a net eye size of 2×2 mm and acclimatized for 15 minutes or more, and then the continuous reaction was evaluated by an up-down method using 8 consecutive von Frey filaments (1, 2, 4, 6, 8, 15, 26, 60 g, Stoelting, USA) when the movement of the rat became quiet. […] It was progressed as the weak filament was stimulated when the positive reaction was shown by stimulating from the von Frey filament in the center, and the strong filament was stimulated when there was no positive reaction. By the above method, measurement was performed before, and at 1, 2, 4, 8, 24, 48, 72, 120, 168 hours after administration of the test substance. For interpretation of the result of the pain behavior test, the case in that avoidance reaction was shown or the foot was lifted up on the net while in contact with a plastic plate was determined as positive. Stimulation was given twice at an interval of 3-5 minutes, and using the positive threshold among them, a response change curve with time was obtained.
Pain threshold values were measured before and at 1, 2, 4, 8, 24, 48, 72, 120, 168 after administration of the test substance of each animal of the Ga to Gd group test groups, and the average of the threshold values of each test group was calculated. In Table 4 below, the threshold value (g) measured over time of drug administration was shown.

Row | Structure (SMILES) | cumulative release amount of bupivacaine [1] [%] | time at which the pain was completely recovered (Sprague-Dawley rats) [h] | threshold value (g), group average (Sprague-Dawley rats; 0 hr (before administration)) [g] | threshold value (g), group average (Sprague-Dawley rats; 1 hr) [g] | threshold value (g), group average (Sprague-Dawley rats; 2 hr) [g] | threshold value (g), group average (Sprague-Dawley rats; 4 hr) [g] | threshold value (g), group average (Sprague-Dawley rats; 8 hr) [g] | threshold value (g), group average (Sprague-Dawley rats; 24 hr) [g] | threshold value (g), group average (Sprague-Dawley rats; 48 hr) [g] | threshold value (g), group average (Sprague-Dawley rats; 72 hr) [g] | threshold value (g), group average (Sprague-Dawley rats; 120 hr) [g] | threshold value (g), group average (Sprague-Dawley rats; 168 hr) [g]
1 | CCCCN1CCCCC1C(=O)Nc1c(C)cccc1C (stereo not drawn) [bupivacaine] | 99 |  |  |  |  |  |  |  |  |  |  | 
2 | CCCN1CCCC[C@H]1C(=O)Nc1c(C)cccc1C [Ropivacaine, ropivacaine] |  | 120 | 60 | 60 | 60 | 37.3 | 31.7 | 28.0 | 17.5 | 29.8 | 60 | 60
